Assay results reported in US11192863B2, “Antiviral compounds and methods” (Biotron Limited, priority 2003, dated 2021).
Entries after “also recorded” stand apart in the source; their conditions may differ. Where two headings read alike, the source gives them in different places.

Key:
human coronavirus OC43 = experiment: microbe, parasite or virus in culture; assay type: cell-based; settings: Betacoronavirus 1, OC43, MRC5, 120 h, MRC-5 cells, 5 days post infection
MHV (strain MHV-A59) = settings: L929 cells
bovine coronavirus (BCV) = experiment: BCV plaque assay in MDBK cells; assay type: cell-based; settings: Betacoronavirus 1; BCV plaques in MDBK cells
EAV (strain Bucyrus) = experiment: EAV plaque reduction assay in BHK-21 cells; assay type: cell-based; settings: Equine arteritis virus; EAV plaques in BHK-21 cells
Experimental: To determine the antiviral activity of compounds against EAV replication (strain Bucyrus; ATCC VR-796), an assay measuring reduction in the number of plaques formed in monolayers of EAV infected BHK-21 cells (ATCC CCL-10) was developed: […] Plates were subsequently incubated at 37° C. […] Plaques were counted in all wells and the percentage reduction in plaque number compared to solvent control was calculated. Measurements were performed in duplicate to quadruplicate wells.

[1] = biological target: SARS E protein ion channel (Severe acute respiratory syndrome coronavirus, UniProt P59637); assay type: biochemical, SARS-CoV
SARS-CoV E protein = SARS-CoV E protein (Severe acute respiratory syndrome coronavirus, UniProt P59637); assay type: cell-based
HIV = assay type: cell-based; settings: for At least 1x log reduction seen in p24 assay?: Table 19b, yes/no
229E-CoV E-protein = 229E-CoV E-protein (Human coronavirus 229E, UniProt P19741); experiment: Bacterial bio-assay for 229E-CoV E-protein; settings: halo of growth score; E. coli expressing E protein at 37° C.
[2] = tested on: porcine respiratory coronavirus (PRCV) strain AR310; experiment: PRCV plaque assay in ST cells; assay type: cell-based; settings: Alphacoronavirus 1; PRCV plaques in ST cells
[3] = biological target: Dengue virus M protein C-terminal peptide (Dengue virus type 1, UniProt P33478); experiment: Dengue virus M protein C-terminal peptide ion channel in lipid bilayers; assay type: biochemical; settings: final concentration of HMA 100 μM in cis chamber
Experimental: The dengue virus M protein C-terminal peptide (DMVC) was dissolved in 2,2,2-trifluorethanol (TFE) at 0.05 mg/ml to 1 mg/ml. […] Channel activity was seen within 15-30 min.
Solutions of 50 mM HMA were prepared by first making a 500 mM solution in DMSO. This solution was further diluted to 50 mM HMA using 0.1 M HCl. 2 μl of the 50 mM HMA was added to the cis chamber after channel activity was seen. The cis chamber contained 1 ml of solution making the final concentration of HMA 100 μM.

Vpu protein = Vpu protein (Human immunodeficiency virus type 1 group M subtype B, UniProt P05919); settings: for Vpu Inhibition (score/# of times tested): halo of growth score between zero and six, XL1-blue E. coli with pPL-Vpu, no adenine, 37° C.
Dengue 1 strain Hawaii = experiment: Dengue cytoproliferation assay in LLC-MK2 cells (Alamar Blue); assay type: cell-based, Dengue virus; settings: 7 days
[4] = biological target: 229E E protein ion channel (Human coronavirus 229E, UniProt P19741); experiment: 229E E protein ion channel in planar lipid bilayers; assay type: biochemical; settings: 100 μM added to the cis chamber; FIG. 10
Experimental: The 229E E synthetic peptide was dissolved in 2,2,2-trifluorethanol (TFE) at 0.05 mg/ml to 1 mg/ml. […] Ionic currents, indicating channel activity in the bilayer, were typically detected within 15-30 min. After channels were detected the holding potential across the bilayer was varied between −100 mV and +100 mV to characterise the size and polarity of current flow and enable the reversal potential to be determined.
To test compounds for their ability to block or otherwise inhibit the ion channel formed by 229E E protein, small aliquots of solutions containing the compounds were added to the aqueous solutions bathing planar lipids in which the peptide channel activity had been reconstituted and the effect of the compound addition on the ionic currents was recorded and measured.
Compound stock solutions were typically prepared at 500 mM in DMSO. This solution was further diluted to 50 mM, or lower concentration in 50% DMSO/50% methanol and 2 μl of the appropriately diluted compound was added to the cis and/or trans chambers to yield the desired final concentration.

[5] = tested on: SARS-CoV (Hong Kong strain); assay type: cell-based, SARS coronavirus; settings: for decrease in virus titre: 10 uM; for Titre (% control): 48 hours; for Average TCID50 (×10^6): 48 hours post infection
[6] = Table 19a, rank among 12 compounds, 1 = highest score

SMILES	inhibition at 2.5 µM (human coronavirus OC43) [%]	Percent reduction in Plaque number/# experiments (MHV (strain MHV-A59); 1 uM)	Percent reduction in Plaque number/# experiments (MHV (strain MHV-A59); 10 uM)	Percent reduction in Plaque number/# experiments (MHV (strain MHV-A59); 20 uM)	EC50 (bovine coronavirus (BCV)) [µM]	IC50 (EAV (strain Bucyrus)) [µM]	% Reduction of average current by 100 μM [1] [%]	SARS E protein Inhibition (score/# of times tested) (SARS-CoV E protein)	At least 1x log reduction seen in p24 assay? (HIV)	229E E protein Inhibition (score) (229E-CoV E-protein)	EC50 [2] [µM]	Bacterial assay rank order (Vpu protein; [6])	Bacterial assay rank order (Vpu protein; Table 19b)	Vpu Bacterial score (Vpu protein; Table 19b)	Vpu Inhibition (score/# of times tested) (Vpu protein)	Antiviral Percent of Negative Control (Dengue 1 strain Hawaii; Drug Conc. 0.625 μM) [%]	Antiviral Percent of Negative Control (Dengue 1 strain Hawaii; Drug Conc. 1.25 μM) [%]	Antiviral Percent of Negative Control (Dengue 1 strain Hawaii; Drug Conc. 2.5 μM) [%]	Antiviral Percent of Negative Control (Dengue 1 strain Hawaii; Drug Conc. 5 μM) [%]	Antiviral Percent of Negative Control (Dengue 1 strain Hawaii; Drug Conc. 10 μM) [%]	other results
NC(N)=NC(=O)c1nc(Cl)c(N2CCCCCC2)nc1N [5-(N,N-hexamethylene)amiloride]	30	13/2%	89/1%	84/2%	9	7.5	91 ± 7	1.2/3 score	no	1.9	0.06	10	10	1.9	1.9/31 score						Percent of Positive Control (HIV; Drug Conc. 0.625 μM): 30%; Percent of Positive Control (HIV; Drug Conc. 1.25 μM): 19%; Percent of Positive Control (HIV; Drug Conc. 2.5 μM): 50%; Percent of Positive Control (HIV; Drug Conc. 5 μM): 21%; Percent of Positive Control (HIV; Drug Conc. 10 μM): 6%; ion channel activity of the Dengue virus M protein C-terminal peptide (in words) [3]: Inhibits Ion Channel Activity; bacterial growth around site of drug application (FIG. 5) (Vpu protein; 3 μl drop, minimal medium lacking adenine, 37° C. 48 hr): halo of bacterial growth
NC(N)=NC(=O)/C=C/c1ccccc1 [cinnamoylguanidine]	57	52/7%	88/8%	97/8%	42			0.69/3 score	yes	1.3	0.08	4	4	3.0	2.96/12 score	76.6	72.6	58.3	38.6	17.1	E protein ion channel activity (in words) [1]: inhibited; also recorded: significantly reduced; SARS E protein N-terminal peptide channel (in words) [1]: blocked; channels formed by full-length E protein (in words) [1]: blocked; reduction of average current across the bilayer [1]: about 4 fold; average current across the bilayer (in words) ([1]; 100 μM): reduced to baseline; current flow through the 229E E ion channel (in words) [4]: greatly reduced current flow; decrease in virus titre [5]: approximately 80%; Titre (% control) ([5]; Compound Concentration 2 uM): 82 % control; Average TCID50 (×10^6) ([5]; Compound Concentration 2 uM): 4.4 ×10^6; Titre (% control) ([5]; Compound Concentration 10 uM): 24 % control; Average TCID50 (×10^6) ([5]; Compound Concentration 10 uM): 1.3 ×10^6
N=C(N)NC(=O)/C=C/c1cccc2ccccc12 [trans-3-(1-napthyl)acryloylguanidine]	100	34/3%	86/3%	95/2%	13	7.5	66 ± 2	3.38/2 score	yes	3.7	19.1	5.5	5.5	2.9	2.9/3 score	77.7	73.7	38.7	12.4	6.8	reduction in virus titre ([5]; 2 μM): approximately 50%; decrease in virus titre [5]: approximately 80%; Titre (% control) ([5]; Compound Concentration 2 uM): 46 % control; Average TCID50 (×10^6) ([5]; Compound Concentration 2 uM): 2.45 ×10^6; Titre (% control) ([5]; Compound Concentration 10 uM): 22 % control; Average TCID50 (×10^6) ([5]; Compound Concentration 10 uM): 1.15 ×10^6
